Laboratory results as given in US5420157A, “Inhibitors of farnesyl protein transferase or prodrugs thereof” (Merck & Co., Inc., priority 1991, dated 1995).
Where a name gives a salt, the structure may show the parent alone.

How the values were obtained:
[1] = target: T1, Farnesyl-protein transferase (FTase) (Bos taurus, UniProt P29702+P49355); assay: Inhibition of Ras farnesylation in vitro (FTase inhibition, Ras-CVLS and [3H]FPP); type: biochemical, bovine; settings: for IC50: Ras-CVLS 3.5 μM, 0.25 μM [3H]FPP, partially purified FTase from bovine brain, assay buffer pH 7.5
T1 construct: Farnesyl-protein transferase (FTase) from bovine brain; from tissue; host or cells: bovine brain, partially purified (DEAE-Sephacel, N-octyl agarose, mono Q)
Experimental: The intrinsic farnesyl-protein transferase (FTase) activity of representative compounds of this invention was measured by the assay as described below:
Farnesyl-protein transferase (FTase) from bovine brain was chromatographed on DEAE-Sephacel (Pharmacia, 0-0.8M NaCl gradient elution), N-octyl agarose (Sigma, 0-0.6M NaCl gradient elution), and a mono Q HPLC column (Pharmacia, 0-0.3M NaCl gradient). Ras-CVLS (Cys-Val-Leu-Ser) at 3.5 μM, 0.25 μM [^3 H]FPP, and the indicated compounds were incubated with this partially purified enzyme preparation. The FTase inhibition data presented below is a measurement of the ability of the test compound to inhibit Ras farnesylation in vitro.

[2] = Equilibrium between diacid (10) and anhydride (9) in solution, pH dependence (UV); type: physicochemical; settings: for Predominant form in anhydride/diacid equilibrium: in solution, pH dependent
From the text: The equilibrium between diacid (10) and anhydride (9) in a solution is pH dependent. […] However, when basified with dil NaOH, this maximum shifted to ^λ max 243 nm. This shift is clear evidence of opening of the anhydride into the diacid.
(§1) The latter band under went a hypsochromic shift to […] after addition of dil NaOH.

[3] = Reaction of anhydride (9) with CH3OH; type: physicochemical; settings: methanolic solution
From the text: as §1

SMILES | RAS farnesyl transferase inhibitory activity of trapped diacid salt ([1]; open diacid form (10) trapped as diisopropylethylamine salt) | IC50 [1] [nM] | Form present under assay conditions ([2]; CH3OH-HEPES buffer (7:5), pH 7.5, UV maximum 243 nm) | Predominant form in anhydride/diacid equilibrium [2] | Reactivity with CH3OH [3]
CCCCCCCCCCCCCC/C(C(=O)O)=C(\C)C(=O)O [diisopropylethylamine salt] | without any loss of RAS farnesyl transferase inhibitory activity | – | – | – | –
CCCCCCCCCCCCCCC1=C(C)C(=O)OC1=O [Compound (9)] | – | 46 | exits in the open dicarboxylate form of compound (10) | predominates when the solution is acidic | reacts slowly with CH3 OH
CCCCCCCCCCCCCC/C(C(=O)O)=C(\C)C(=O)O [Compound (10)] | – | 46 | – | predominates when the solution is basic | –
